Measured values reported in US7696165B2 (Albany Molecular Research, Inc., priority 2006, dated 2010).
Converted amounts (≈) assume the structure as drawn.

System: concanavalin A (ConA)-stimulated murine splenocytes
Experiment: Concanavalin A-stimulated murine splenocyte assay ([3H]thymidine incorporation)
Assay type: cell-based, mouse (BALB/c)
Experimental: Male BALB/c mice, at 5 to 7 weeks of age, were sacrificed by CO2 inhalation. Spleens were removed and dissociated by pushing through a nylon cell strainer. The splenocytes were washed in RPMI 1640/5% fetal calf serum (FCS) and pelleted at 400×g. Red blood cells were then lysed by resuspending the cell pellet in ACK lysis buffer (150 mM NH4Cl, 1 mM KHCO3, 0.1 mM EDTA, 3 mL per spleen) for 10 min at room temperature. After pelleting at 400×g, the cells were washed by resuspending in RPMI 1640/5% FCS and repelleting. The cell pellet was resuspended in RPMI 1640/5% FCS and again passed through a cell strainer to remove cell aggregates. The cells were then counted and adjusted to 2×10^6 cells/ml in RPMI 1640/10% FCS/50 μM 2-mercaptoethanol. Cell viability was assessed by Trypan blue staining. […] The cells were cultured in a 37° C. CO2 incubator for 2 days and then pulsed with 1 μCi of [^3H]thymidine for 6 hours. Cells were harvested onto filtermats with a TomTec 96 well plate harvester and lysed with H2O. The filtermat and scintillation fluid were sealed in a plastic sleeve. [^3H]thymidine incorporation was measured with a Wallac Trilux plate counter. Initial screens were done at a fixed value of 100 ng/ml test compound. IC50s were calculated from 7 point concentration-response curves using graphPad software.

SMILES	IC50 [µg/mL]	immunosuppressive potency compared to cyclosporin A (FIG. 1, ConA stimulated murine splenocyte assay)
C#CC#CC[C@@H](C)[C@@H](O)[C@H]1C(=O)N[C@@H](CC)C(=O)N(C)CC(=O)N(C)[C@@H](CC(C)C)C(=O)N[C@@H](C(C)C)C(=O)N(C)[C@@H](CC(C)C)C(=O)N[C@@H](C)C(=O)N[C@H](C)C(=O)N(C)[C@@H](CC(C)C)C(=O)N(C)[C@@H](CC(C)C)C(=O)N(C)[C@@H](C(C)C)C(=O)N1C [Example 25, cyclosporine diyne]	0.012 (≈ 0.00991 µM)	two times more potent over cyclosporin A
CC#CC#CC[C@@H](C)[C@@H](O)[C@H]1C(=O)N[C@@H](CC)C(=O)N(C)CC(=O)N(C)[C@@H](CC(C)C)C(=O)N[C@@H](C(C)C)C(=O)N(C)[C@@H](CC(C)C)C(=O)N[C@@H](C)C(=O)N[C@H](C)C(=O)N(C)[C@@H](CC(C)C)C(=O)N(C)[C@@H](CC(C)C)C(=O)N(C)[C@@H](C(C)C)C(=O)N1C [Example 27, cyclosporin diyne]	0.012 (≈ 0.0098 µM)	–
C/C=C\C#CC[C@@H](C)[C@@H](O)[C@H]1C(=O)N[C@@H](CC)C(=O)N(C)CC(=O)N(C)[C@@H](CC(C)C)C(=O)N[C@@H](C(C)C)C(=O)N(C)[C@@H](CC(C)C)C(=O)N[C@@H](C)C(=O)N[C@H](C)C(=O)N(C)[C@@H](CC(C)C)C(=O)N(C)[C@@H](CC(C)C)C(=O)N(C)[C@@H](C(C)C)C(=O)N1C [Example 14, cis-cyclosporin yne-ene]	0.032 (≈ 0.0261 µM)	–
C/C=C\C#CC#CC[C@@H](C)[C@@H](O)[C@H]1C(=O)N[C@@H](CC)C(=O)N(C)CC(=O)N(C)[C@@H](CC(C)C)C(=O)N[C@@H](C(C)C)C(=O)N(C)[C@@H](CC(C)C)C(=O)N[C@@H](C)C(=O)N[C@H](C)C(=O)N(C)[C@@H](CC(C)C)C(=O)N(C)[C@@H](CC(C)C)C(=O)N(C)[C@@H](C(C)C)C(=O)N1C [Example 35, cis-cyclosporin yne-yne-ene]	0.077 (≈ 0.0616 µM)	–
